Assays:
[1] = biological target: T1, dopamine uptake carrier (Rattus norvegicus, UniProt P23977); assay: Dopamine re-uptake in purified synaptosomes of rat brain striatal tissue; format: biochemical, Sprague-Dawley rats; conditions: substrate concentration 0.1 µM
T1 construct: purified synaptosomes of brain striatal tissue from Sprague-Dawley rats; from tissue; host or cells: Sprague-Dawley rat brain striatum, purified synaptosomes
Description: Kinetic studies of dopamine re-uptake were carried out in purified synaptosomes of brain striatal tissue from Sprague-Dawley rats.

[2] = biological target: T2, MAO-A (Rattus norvegicus, UniProt P21396); assay: Kinetic parameters of suicide-type inhibition, MAO-A; format: biochemical, Sprague-Dawley rat
T2 construct: human and rat tissue to obtain the isolated forms of monoamine oxidase A and B; from tissue
T2 sequence (P21396 1-526): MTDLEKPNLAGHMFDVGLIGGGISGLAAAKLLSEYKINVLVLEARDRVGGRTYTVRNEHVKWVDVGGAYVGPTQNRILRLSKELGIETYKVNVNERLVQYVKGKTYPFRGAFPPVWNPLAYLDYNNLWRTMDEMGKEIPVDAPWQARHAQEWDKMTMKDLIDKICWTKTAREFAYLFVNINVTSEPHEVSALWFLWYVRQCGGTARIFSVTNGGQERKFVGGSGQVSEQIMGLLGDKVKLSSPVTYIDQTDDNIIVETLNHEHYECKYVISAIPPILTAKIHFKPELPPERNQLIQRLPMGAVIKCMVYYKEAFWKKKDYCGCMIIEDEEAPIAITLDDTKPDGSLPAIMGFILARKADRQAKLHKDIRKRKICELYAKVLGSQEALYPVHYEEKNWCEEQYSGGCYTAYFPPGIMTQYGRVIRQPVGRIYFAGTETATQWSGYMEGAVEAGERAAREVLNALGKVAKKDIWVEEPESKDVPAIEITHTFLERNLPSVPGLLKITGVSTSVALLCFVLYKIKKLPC
Text: Based on the apparent velocity constants of the first order (kapp) obtained for each inhibitor, calculations were made of the K1 and K^1c at (according to the method described by M. Avila et al. 1993, Biochem Pharmac 45, 2231-2237). K1 is the affinity constant of the first stage of the reaction and K1 MAO-A / K1 MAO-B the expression of the selectivity.
K^1cat is the velocity constant for the formation of the covalent irreversible complex during the second stage of the process. To compare the values of these constants towards the two forms of MAO, we express the inhibition efficacy as the ratio K^1cat/K1. The value of these constants (see Tables 2 and 3), is the result of three different experiments, with their corresponding SEM.

[3] = system: ibotenic acid; assay: Protection against the neurotoxicity of ibotenic acid (brain acetylcholine); format: in vivo, Sprague-Dawley rats; conditions: homogenised rat brain; 3 mg/Kg i.p. 2 h before intracerebroventricular ibotenic acid; ibotenic acid alone 3%; depending on the dose
Description: One group of Sprague-Dawley rats was treated with compound FA-73 (3 mg/Kg, i.p.) followed two hours later by an stereotaxic injection of ibotenic acid into the cerebral ventricles at a dose that would induce an Alzheimer type of pathology. After sacrificing the animals, determinations were made of the acetylcholine (AC) in the homogenised brains.

[4] = biological target: T3, MAO-A (Mus musculus, UniProt Q64133); assay: Ex vivo inhibition of brain MAO-A after i.p. administration; format: in vivo, C57/BL mice; conditions: mouse brain homogenate 2 hours after i.p., l-deprenyl 10 mg/Kg, tested compound 4 mg/Kg
T3 construct: the brains homogenised in potassium phosphate buffer 50 mM, pH 7.2; from tissue; host or cells: C57/BL mouse brain homogenate
T3 sequence (Q64133 1-526): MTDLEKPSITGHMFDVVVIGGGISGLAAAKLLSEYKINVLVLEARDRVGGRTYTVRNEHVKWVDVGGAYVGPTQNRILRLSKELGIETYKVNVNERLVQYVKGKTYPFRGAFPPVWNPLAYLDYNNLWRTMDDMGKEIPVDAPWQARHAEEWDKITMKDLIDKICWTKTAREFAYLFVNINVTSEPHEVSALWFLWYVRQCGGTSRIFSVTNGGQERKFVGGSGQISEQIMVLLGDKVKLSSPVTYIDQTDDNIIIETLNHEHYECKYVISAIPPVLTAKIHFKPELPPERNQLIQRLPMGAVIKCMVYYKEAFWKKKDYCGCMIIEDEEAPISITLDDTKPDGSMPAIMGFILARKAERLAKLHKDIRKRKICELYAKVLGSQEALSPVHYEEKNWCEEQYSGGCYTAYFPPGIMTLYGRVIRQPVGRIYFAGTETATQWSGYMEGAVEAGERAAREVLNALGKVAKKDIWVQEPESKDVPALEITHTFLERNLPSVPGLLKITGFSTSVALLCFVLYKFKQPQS
Description: The pharmacological assays were carried out on C57/BL mice. These animals are sensitive to the induction of the symptomatology of Parkinson's disease through the action of MPTP.
The animals were sacrificed by decapitation after 2 hours and the brains homogenised in potassium phosphate buffer 50 mM, pH 7.2. Determinations were made of the MAO-A and MAO-B activity in each case using radiometric methods.

[5] = biological target: T4, MAO-B (Homo sapiens, UniProt P27338); assay: MAO-B inhibition in homogenated human cerebral cortex; format: biochemical
T4 construct: performed using homogenated human cerebral cortex obtained from autopsies; from tissue; host or cells: post-mortem human cerebral cortex homogenate
T4 sequence (P27338 1-520): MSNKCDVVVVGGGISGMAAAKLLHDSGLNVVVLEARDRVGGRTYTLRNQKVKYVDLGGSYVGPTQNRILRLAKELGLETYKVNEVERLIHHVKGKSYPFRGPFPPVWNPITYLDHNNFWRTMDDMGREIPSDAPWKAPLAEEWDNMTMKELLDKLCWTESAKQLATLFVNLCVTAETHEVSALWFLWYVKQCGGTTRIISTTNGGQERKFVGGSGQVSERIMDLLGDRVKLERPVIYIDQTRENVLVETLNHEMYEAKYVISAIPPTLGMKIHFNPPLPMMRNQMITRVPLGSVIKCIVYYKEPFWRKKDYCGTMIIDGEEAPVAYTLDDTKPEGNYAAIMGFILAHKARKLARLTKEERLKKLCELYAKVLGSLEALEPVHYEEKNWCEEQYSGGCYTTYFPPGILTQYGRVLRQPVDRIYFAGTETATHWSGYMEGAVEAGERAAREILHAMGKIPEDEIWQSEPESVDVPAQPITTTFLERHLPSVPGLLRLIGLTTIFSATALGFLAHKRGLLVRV
Text: They were provided by Dr. Fco Javier González Oliván (Forensic Anatomic Institute of the Hospital Clínico Provincial in Barcelona).

T1 sequence (P23977 whole entry): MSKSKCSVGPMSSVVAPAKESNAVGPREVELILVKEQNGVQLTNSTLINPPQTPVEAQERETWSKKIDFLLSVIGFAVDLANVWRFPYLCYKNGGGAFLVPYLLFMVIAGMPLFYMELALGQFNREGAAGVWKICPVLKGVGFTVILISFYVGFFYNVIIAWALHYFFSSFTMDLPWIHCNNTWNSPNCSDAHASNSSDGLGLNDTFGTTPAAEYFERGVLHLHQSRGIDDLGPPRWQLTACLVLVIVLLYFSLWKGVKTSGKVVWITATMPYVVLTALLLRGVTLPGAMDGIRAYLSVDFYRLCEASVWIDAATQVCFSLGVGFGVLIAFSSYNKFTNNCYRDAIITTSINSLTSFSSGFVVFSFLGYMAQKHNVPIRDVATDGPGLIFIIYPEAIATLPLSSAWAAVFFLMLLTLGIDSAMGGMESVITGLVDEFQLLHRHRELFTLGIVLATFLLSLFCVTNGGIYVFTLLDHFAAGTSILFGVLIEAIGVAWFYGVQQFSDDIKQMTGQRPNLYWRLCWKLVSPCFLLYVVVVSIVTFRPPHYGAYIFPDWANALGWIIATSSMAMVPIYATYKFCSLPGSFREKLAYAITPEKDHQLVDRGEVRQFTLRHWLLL

C#CCNCc1cc2cc(OCc3ccccc3)ccc2[nH]1 [FA-73]
IC50 [1]: 150000 nM
Ki ([2]; MAO-A (A..), affinity constant of the first stage, three experiments ± SEM, read-out: K1): 800 nM
K^1cat / K1(10^-3) ([2]; MAO-A, inhibition efficacy): 0.1 10^-3
K^1cat ([2]; MAO-A, velocity constant for formation of the covalent irreversible complex, ± SEM): 0.087 ± 0.006 min⁻¹
acetylcholine level [3]: up to 85 % of the control
remaining activity at 4 mg/kg ([4]; ip, control = 100%): 96.2%
MAO-A ACTIVITY ([4]; control 485): 467
IC50 [5]: 200 nM

Reference: patent EP0754455A1, “PHARMACEUTICAL COMPOSITIONS BASED ON AMINOMETHYLINDOLES AND THEIR THERAPEUTICAL APPLICATION AS NEUROPROTECTORS IN PARKINSON AND ALZHEIMER DISEASES” (CONSEJO SUPERIOR INVESTIGACIONES CIENTIFICAS (CSIC), priority 1995, dated 1996)
